# Measurements as given in patent US12390483B2, “Compounds and methods for treating neurological and cardiovascular conditions” (Astrocyte Pharmaceuticals, Inc., priority 2016, dated 2025).
# Columns and labels:
# GFAP expression = assay: Traumatic brain injury (TBI) in mice, Western blot analysis for GFAP; type: in vivo; conditions: summary statement
# Experimental: Animals and traumatic brain injury (TBI): TBI was performed with a controlled closed skull injury model as described in […] al. 2012 (J. Neurotrauma 30, 55-66). Following the method described therein, a pneumatic impact device was used to generate a moderate TBI leaving the skull and dura matter intact. To achieve this, C57BL/6 mice were anesthetized with isoflurane (3% induction, 1% maintenance) in 100% oxygen. A body temperature of 37° C. was maintained using a temperature-controlled heated surgical table. A small midline incision was made on the scalp using aseptic surgical techniques. A 5 mm stainless steel disc was positioned on the skull and fixed using superglue on the right parietal bone between bregma and lamda over the somatosensory cortex. The mouse was then positioned on a stage directly under the pneumatic impact tip. […] Scalp incisions were closed using 4-0 nylon braided suture and antibiotic ointment applied to the incision. Mice were placed in a Thermo-Intensive Care Unit (Braintree Scientific model FV-1; 37° C.; 27% 02) and monitored until fully awake and moving freely. […] Western Blot Analysis for GFAP: At selected survival times, mice were anesthetized under isoflurane and sacrificed. The brain was removed and placed on ice for dissection into impacted and non-impacted brain hemispheres. […] The homogenate was transferred to a 2 mL tube and centrifuged at 1000 g for 10 minutes at 4° C. and the supernatant was collected and analyzed. Protein concentration was determined by the BCA assay using a 1:50 dilution. 100 μg of protein was removed as an aliquot for each sample and Laemmli buffer containing β-mercaptoethanol added and the sample placed in a heat block for 3 minutes at 95° C. Samples were loaded on a 12% gel and ran at 80 V for 20 minutes followed by 40 minutes at 130 V. Samples were transferred to nitrocellulose membrane at 100 V for 1 hour. The membrane was blocked with 5% milk in TBS-T for 30 minutes. GFAP (1:1000-Imgenex IMG-5083-A) was added and placed at 4° C. overnight. The membrane was washed with TBS-T three times for 10 minutes. Secondary antibody for GFAP (Donkey anti-rabbit HRP conjugated (ImmunoJackson Laboratories; 711-035-152; 1:20000) was applied at room temperature for 1 hour. The membranes were washed with TBS-T for 15 minutes (3 times) and developed using the Western Lightning Plus-ECL kit (PerkinElmer, Inc.) following manufacturer's directions.
# Human A3 = target: T1, Human A3 (Homo sapiens, UniProt P0DMS8); conditions: J. Med. Chem. 2002 45:4471-4484 (Gao et al.); cited from earlier work
# T1 sequence (P0DMS8 1-318): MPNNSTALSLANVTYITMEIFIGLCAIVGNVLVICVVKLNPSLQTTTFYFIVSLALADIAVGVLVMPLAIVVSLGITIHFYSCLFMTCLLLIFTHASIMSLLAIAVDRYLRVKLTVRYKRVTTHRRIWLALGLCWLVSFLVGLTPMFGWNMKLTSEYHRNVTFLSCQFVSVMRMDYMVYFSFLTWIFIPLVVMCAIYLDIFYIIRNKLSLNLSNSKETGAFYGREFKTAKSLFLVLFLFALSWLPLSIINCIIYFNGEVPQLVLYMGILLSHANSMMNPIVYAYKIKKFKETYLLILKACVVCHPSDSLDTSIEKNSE
# [1] = tested on: photothrombosis-induced stroke infarctions; assay: Photothrombosis-induced stroke in mice, TTC-stained brain infarction size; type: in vivo
# Experimental: Photothrombosis-induced Stroke: Photothrombosis was performed as described in Zheng et al 2010 (PloS One 5 (12): e14401). In brief, Rose Bengal is a fluorescent dye that when injected into the vasculature and excited, generates singlet oxygen that damages the endothelial wall and induces a local thrombosis (clot). Using this technique, mice were given a 0.1 mL tail-vein injection of sterilized Rose Bengal (RB, Sigma, U.S.A.) in artificial cerebral spinal fluid (aCSF). The RB concentration was 20 mg/mL. A cortical region was centered in the imaging field and illuminated with a green laser (543 nm, 5 mW) using a 0.8-NA 40× water-immersion objective (Nikon, Tokyo). The clot formation was monitored in real time until the targeted vessel or downstream capillaries were firmly occluded. Stable clots were subsequently identified by a non-fluorescent vessel segmentation ending with highly fluorescent regions. […] Treatments, MRS4322 (0.16 mg/kg; 0.5 μmol/kg) or MRS2365 (0.24 mg/kg; 0.5 μmol/kg) were introduced via intraperitoneal injections (i.p.). […] Animals and Photothrombosis-induced Stroke: Stroke was performed as described in Zheng et al 2010 (PloS One 5 (12): e14401). Female C57Bl/6 mice (4-6 months) were used in this study. From the methods of this manuscript: Mice were anesthetized at 3% isoflurane with 100% oxygen and subsequently maintained at 1% isoflurane through a nosecone. Depth of anesthesia was monitored and regulated according to vital signs, pinch withdrawal and eye blinks. Body temperature was maintained at 37° C. by a feedback-controlled heating pad (Gaymar T/Pump). Vital signs including oxygen saturation, respiratory rate, and heart rate were continuously monitored by using the MouseOx system (STARR Life Sciences). The hair on each mouse's head was trimmed and a small incision was made in the scalp to expose the skull. A custom-made stainless steel plate was glued to the skull with VetBond Tissue Adhesive (3M, St Paul, MN). A cranial thinned-skull imaging window was created over the right primary somatosensory cortex (˜1.5 mm posterior to Bregma and 2 mm lateral from midline) depending on the experiment. In brief, a large region of the skull was first thinned with the electric drill and then further thinned with a surgical blade. The final thickness of the thinned skull was approximately 50 μm. After the cranial imaging window was created, mice were transferred to microscope stage and used for photothrombosis or imaging experiments. For the repeat imaging experiments, the plate was carefully detached from the skull and the scalp was sutured (Ethicon 6-0 sild suture). After each experiment, the mice were either returned to cages until the next timepoint or sacrificed. All procedures were approved by the Institutional Animal Care and Use Committee (IACUC) at University of Texas Health Science Center at San Antonio. Thirty minutes following stroke or sham (uninjured), mice were treated with either vehicle (saline) or drugs (MRS4322, MRS2365, MRS5698 or Cl-IBMECA). Post photothrombotic infarction evaluation. The size of cerebral infarcts was evaluated using 2,3,5-Triphenyltetrazolium chloride (TTC) staining as described in Zheng et al 2010 (PloS One 5 (12): e14401). In brief, RB-induced lesions in brain slices were stained with TTC. TTC is a colorless dye that stains healthy brain tissue red when reduced by the mitochondrial enzyme succinyl dehydrogenase (Bederson J B et al., 1986). The absence of staining in necrotic tissue is then used to define the area of a brain infarction. Mice were sacrificed by cervical dislocation, their brains removed and then placed in ice cold HBSS for 3 minutes. […] The sections were fixed in 10% buffered formaldehyde solution overnight at 4° C. Slices were imaged on a flatbed scanner (HP scanjet 8300) for analysis of the lesion size at 1200 dpi. Photothrombosis-induced Stroke: Photothrombosis was performed as described in Zheng et al. 2010 (PloS One 5 (12): e14401). […]
# [2] = mouse plasma and tissue; Tosh et al. Purinergic Signalling (2015) 11:371-387; cited from earlier work
compound,measurement,setting,value
"CNC(=O)[C@H]1O[C@@H](n2cnc3c(NCc4cccc(I)c4)nc(Cl)nc32)[C@H](O)[C@@H]1O [Cl-IB-MECA, 2-Chloro-N^6-(3-iodobenzyl)-adenosine-5′-N-methyluronamide, reference compound]",efficacy in the mouse TBI model,GFAP expression,weakly active
Nc1nc(Cl)nc2c1ncn2[C@H]1[C@H](O)[C@H](O)[C@]2(CO)C[C@H]12 [MRS1873],EC50,Human A3,803 nM
same,size of the brain infarction (TTC staining),"[1]; Example 7: mice, 100 ul of 100 uM i.p. within 30 minutes of clot formation, 24 hours after stroke, versus vehicle",significantly reduced
"CNC(=O)[C@@]12C[C@@H]1[C@@H](n1cnc3c(NCc4cccc(Cl)c4)nc(C#Cc4ccc(F)c(F)c4)nc31)[C@H](O)[C@@H]2O [MRS5698, reference compound]",protein binding reported in the literature,[2],99.88%
same,size of brain infarctions in mice pretreated with the A3 receptor antagonist MRS1523,"[1]; MRS1523 2 mg/kg i.p. at 0 and 2 hours, treatment within 30 minutes of clot formation, 24 hours",not reduced
"CCCOC(=O)c1c(-c2ccccc2)nc(CC)c(C(=O)SCC)c1CCC [MRS1523, reference compound]",effect of antagonist on neuroprotection of MRS4322 and MRS2365 treatments after stroke,[1]; MRS1523 2 mg/kg i.p. at 0 and 2 hours,inhibits neuroprotection
